Target: recombinant IL4I1 (Homo sapiens (Human), UniProt Q96RQ9)
Assay: IL4I1 Enzymatic Assay (Amplex Red/HRP coupled fluorescence detection of H2O2)
Assay type: biochemical
Conditions: 240 min; recombinant IL4I1, four-hour pre-incubation with compound
How it was run: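 Recombinant human IL4I1 (1 nM final) pre-incubated 4 h with compound at ambient temperature in 50 mM Hepes pH 7.0, 0.005% Tween20. Started with 1 mM each Phe/Tyr/Trp plus Amplex Red/HRP; H2O2-derived resorufin fluorescence read after 120 min; EC50 from ten-point 1:3 titration, four-parameter fit.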

Chain of recombinant IL4I1 (Q96RQ9 22-567): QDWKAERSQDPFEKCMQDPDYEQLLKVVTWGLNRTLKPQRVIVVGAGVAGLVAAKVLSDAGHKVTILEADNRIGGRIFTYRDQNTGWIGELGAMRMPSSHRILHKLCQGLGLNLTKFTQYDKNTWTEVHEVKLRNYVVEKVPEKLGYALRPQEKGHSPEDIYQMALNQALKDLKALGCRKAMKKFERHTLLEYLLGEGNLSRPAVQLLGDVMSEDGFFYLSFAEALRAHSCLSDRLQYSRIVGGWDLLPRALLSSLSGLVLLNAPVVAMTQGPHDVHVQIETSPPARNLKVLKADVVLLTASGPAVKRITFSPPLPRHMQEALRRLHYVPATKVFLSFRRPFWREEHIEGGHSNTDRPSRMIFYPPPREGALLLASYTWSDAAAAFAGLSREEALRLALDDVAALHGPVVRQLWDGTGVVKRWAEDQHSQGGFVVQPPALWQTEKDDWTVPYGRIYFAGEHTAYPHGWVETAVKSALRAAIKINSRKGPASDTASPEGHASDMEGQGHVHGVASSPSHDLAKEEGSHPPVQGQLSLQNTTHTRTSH

Row | Structure (SMILES) | EC50
1 | O=C1C(=O)N(C2CCCC2)CCN1Cc1cc(-c2ccccc2)n[nH]1 [Example 274, 1-cyclopentyl-4-((3-phenyl-1H-pyrazol-5-yl)methyl)piperazine-2,3-dione] | 34 nM
2 | O=C1NCCc2ccc(CN3CCN(C4CCCC4)C(=O)C3=O)cc21 [Example 275, 1-cyclopentyl-4-((1-oxo-1,2,3,4-tetrahydroisoquinolin-7-yl)methyl)piperazine-2,3-dione] | 20 nM
3 | O=C1C(=O)N(C23CC(C2)C3)CCN1Cc1ncc(-c2ccccc2)cn1 [Example 276, 1-(bicyclo[1.1.1]pentan-1-yl)-4-((5-phenylpyrimidin-2-yl)methyl)piperazine-2,3-dione] | 26 nM
4 | O=C1C(=O)N([C@H]2C[C@H]3C[C@H]3C2)CCN1Cc1ncc(-c2ccccc2)cn1 [Example 278, 1-((cis)-bicyclo[3.1.0]hexan-3-yl)-4-((5-phenylpyrimidin-2-yl)methyl)piperazine-2,3-dione] | 16 nM
5 | O=C1C(=O)N(C2CCOC2)CCN1Cc1ncc(-c2ccccc2)cn1 (stereo not shown) [Example 279, 1-((5-phenylpyrimidin-2-yl)methyl)-4-(tetrahydrofuran-3-yl)piperazine-2,3-dione] | 68 nM
6 | O=C1C(=O)N(CC2CC2)CCN1Cc1ncc(-c2ccccc2)cn1 [Example 280, 1-(cyclopropylmethyl)-4-((5-phenylpyrimidin-2-yl)methyl)piperazine-2,3-dione] | 38 nM
7 | O=C1C(=O)N(CC2CCC2)CCN1Cc1ncc(-c2ccccc2)cn1 [Example 281, 1-(cyclobutylmethyl)-4-((5-phenylpyrimidin-2-yl)methyl)piperazine-2,3-dione] | 35 nM
8 | O=C1C(=O)N(C2C[C@@H]3C[C@@H]3C2)CCN1Cc1ccc(-c2ccccc2)nn1 (stereo partly drawn) [Example 284, 1-((cis)-bicyclo[3.1.0]hexan-3-yl)-4-((6-phenylpyridazin-3-yl)methyl)piperazine-2,3-dione] | 8 nM
9 | CC(C)N1CCN(Cc2ncc(-c3ccccc3)cn2)C(=O)C1=O [Example 286, 1-isopropyl-4-((5-phenylpyrimidin-2-yl)methyl)piperazine-2,3-dione] | 34 nM
10 | CC(C)(C)CN1CCN(Cc2ncc(-c3ccccc3)cn2)C(=O)C1=O [Example 287, 1-neopentyl-4-((5-phenylpyrimidin-2-yl)methyl)piperazine-2,3-dione] | 34 nM
11 | CC(CF)N1CCN(Cc2ncc(-c3ccccc3)cn2)C(=O)C1=O (stereo not shown) [Example 288, 1-(1-fluoropropan-2-yl)-4-((5-phenylpyrimidin-2-yl)methyl)piperazine-2,3-dione] | 37 nM
12 | O=C1C(=O)N(C2CC(C3CC3)C2)CCN1Cc1nnc(-c2ccccc2)s1 (stereo not shown) [Example 291, 1-(3-cyclopropylcyclobutyl)-4-((5-phenyl-1,3,4-thiadiazol-2-yl)methyl)piperazine-2,3-dione] | 4 nM
13 | O=C1C(=O)N(C23CC(F)(C2)C3)CCN1Cc1nnc(-c2ccccc2)s1 [Example 294, 1-(3-fluorobicyclo[1.1.1]pentan-1-yl)-4-((5-phenyl-1,3,4-thiadiazol-2-yl)methyl)piperazine-2,3-dione] | 16 nM
14 | CC12CC(N3CCN(Cc4nnc(-c5ccccc5)s4)C(=O)C3=O)(CO1)C2 [Example 296, 1-(1-methyl-2-oxabicyclo[2.1.1]hexan-4-yl)-4-((5-phenyl-1,3,4-thiadiazol-2-yl)methyl)piperazine-2,3-dione] | 63 nM
15 | COc1ccc(C2(N3CCN(Cc4nnc(-c5ccccc5)s4)C(=O)C3=O)CC2)nc1 [Example 297, 1-(1-(5-methoxypyridin-2-yl)cyclopropyl)-4-((5-phenyl-1,3,4-thiadiazol-2-yl)methyl)piperazine-2,3-dione] | 83 nM
16 | COCC(C)(C)N1CCN(Cc2nnc(-c3ccccc3)s2)C(=O)C1=O [Example 299, 1-(1-methoxy-2-methylpropan-2-yl)-4-((5-phenyl-1,3,4-thiadiazol-2-yl)methyl)piperazine-2,3-dione] | 56 nM
17 | O=C1C(=O)N(C23CCC(CC2=O)C3)CCN1Cc1nnc(-c2ccccc2)s1 (stereo not shown) [Example 301, 1-(2-oxobicyclo[2.2.1]heptan-1-yl)-4-((5-phenyl-1,3,4-thiadiazol-2-yl)methyl)piperazine-2,3-dione] | 67 nM
18 | CC1(N2CCN(Cc3nnc(-c4ccccc4)s3)C(=O)C2=O)CC1 [Example 303, 1-(1-methylcyclopropyl)-4-((5-phenyl-1,3,4-thiadiazol-2-yl)methyl)piperazine-2,3-dione] | 28 nM
19 | O=C1C(=O)N(C2(c3ccncc3)CC2)CCN1Cc1nnc(-c2ccccc2)s1 [Example 304, 1-((5-phenyl-1,3,4-thiadiazol-2-yl)methyl)-4-(1-(pyridin-4-yl)cyclopropyl)piperazine-2,3-dione] | 98 nM
20 | O=C1C(=O)N(C2(CF)CC2)CCN1Cc1nnc(-c2ccccc2)s1 [Example 305, 1-(1-(fluoromethyl)cyclopropyl)-4-((5-phenyl-1,3,4-thiadiazol-2-yl)methyl)piperazine-2,3-dione] | 32 nM
21 | CC(C)(C)N1CCN(Cc2nnc(-c3ccccc3)s2)C(=O)C1=O [Example 307, 1-(tert-butyl)-4-((5-phenyl-1,3,4-thiadiazol-2-yl)methyl)piperazine-2,3-dione] | 20 nM
22 | O=C1C(=O)N(C2CCCC2)CCN1Cc1nnc(N2CC[C@H](F)C2)s1 [Example 311, (S)-1-cyclopentyl-4-((5-(3-fluoropyrrolidin-1-yl)-1,3,4-thiadiazol-2-yl)methyl)piperazine-2,3-dione] | 60 nM
23 | O=C1C(=O)N(C2CCCC2)CCN1Cc1nnc(N2CC[C@H](CF)C2)s1 [Example 312, (S)-1-cyclopentyl-4-((5-(3-(fluoromethyl)pyrrolidin-1-yl)-1,3,4-thiadiazol-2-yl)methyl)piperazine-2,3-dione] | 69 nM
24 | O=C1C(=O)N(C2CCCC2)CCN1Cc1ccc(N2CCCC2)nn1 [Example 314, 1-cyclopentyl-4-((6-(pyrrolidin-1-yl)pyridazin-3-yl)methyl)piperazine-2,3-dione] | 43 nM

Continued by falling EC50, values first:

Row | EC50 | Structure (SMILES)
25 | 86 nM | CC(C)(c1cccnc1)N1CCN(Cc2nnc(-c3ccccc3)s2)C(=O)C1=O [Example 300, 1-((5-phenyl-1,3,4-thiadiazol-2-yl)methyl)-4-(2-(pyridin-3-yl)propan-2-yl)piperazine-2,3-dione]
26 | 69 nM | CC1(N2CCN(Cc3nnc(-c4ccccc4)s3)C(=O)C2=O)COC1 [Example 302, 1-(3-methyloxetan-3-yl)-4-((5-phenyl-1,3,4-thiadiazol-2-yl)methyl)piperazine-2,3-dione]
27 | 64 nM | O=C1C(=O)N(c2ccccc2)CCN1Cc1ncc(-c2ccccc2)cn1 [Example 292, 1-phenyl-4-((5-phenylpyrimidin-2-yl)methyl)piperazine-2,3-dione]
28 | 53 nM | N#CC12CC(N3CCN(Cc4nnc(-c5ccccc5)s4)C(=O)C3=O)(C1)C2 [Example 295, 3-(2,3-dioxo-4-((5-phenyl-1,3,4-thiadiazol-2-yl)methyl)piperazin-1-yl)bicyclo[1.1.1]pentane-1-carbonitrile]
29 | 47 nM | O=C1C(=O)N(C2CCCC2)CCN1Cc1nnc(N2CC3CC3C2)s1 (stereo not shown) [Example 313, 1-((5-(3-azabicyclo[3.1.0]hexan-3-yl)-1,3,4-thiadiazol-2-yl)methyl)-4-cyclopentylpiperazine-2,3-dione]
30 | 41 nM | O=C1C(=O)N(C2CCCC2)CCN1Cc1nnc(N2CCCCC2)s1 [Example 309, 1-cyclopentyl-4-((5-(piperidin-1-yl)-1,3,4-thiadiazol-2-yl)methyl)piperazine-2,3-dione]
31 | 41 nM | O=C1C(=O)N(C2CCCC2)CCN1Cc1nnc(N2CCCC2)s1 [Example 310, 1-cyclopentyl-4-((5-(pyrrolidin-1-yl)-1,3,4-thiadiazol-2-yl)methyl)piperazine-2,3-dione]
32 | 35 nM | N#CC1(N2CCN(Cc3nnc(-c4ccccc4)s3)C(=O)C2=O)CC1 [Example 308, 1-(2,3-dioxo-4-((5-phenyl-1,3,4-thiadiazol-2-yl)methyl)piperazin-1-yl)cyclopropane-1-carbonitrile]
33 | 32 nM | O=C1C(=O)N(C2(C(F)(F)F)CCC2)CCN1Cc1nnc(-c2ccccc2)s1 [Example 298, 1-((5-phenyl-1,3,4-thiadiazol-2-yl)methyl)-4-(1-(trifluoromethyl)cyclobutyl)piperazine-2,3-dione]
34 | 30 nM | CC1CCC1N1CCN(Cc2ncc(-c3ccccc3)cn2)C(=O)C1=O (stereo not shown) [Example 282, 1-(2-methylcyclobutyl)-4-((5-phenylpyrimidin-2-yl)methyl)piperazine-2,3-dione]
35 | 28 nM | N#CC1CC(N2CCN(Cc3nnc(-c4ccccc4)s3)C(=O)C2=O)C1 (stereo not shown) [Example 285, 3-(2,3-dioxo-4-((5-phenyl-1,3,4-thiadiazol-2-yl)methyl)piperazin-1-yl)cyclobutane-1-carbonitrile]
36 | 27 nM | CC1(N2CCN(Cc3nnc(-c4ccccc4)s3)C(=O)C2=O)CCCCC1 [Example 306, 1-(1-methylcyclohexyl)-4-((5-phenyl-1,3,4-thiadiazol-2-yl)methyl)piperazine-2,3-dione]
37 | 24 nM | O=C1C(=O)N(C2CCC2)CCN1Cc1ncc(-c2ccccc2)cn1 [Example 277, 1-cyclobutyl-4-((5-phenylpyrimidin-2-yl)methyl)piperazine-2,3-dione]
38 | 11 nM | [2H]C1(n2ccn(Cc3nnc(-c4ccccc4)s3)c(=O)c2=O)CCCC1 [Example 293, 1-(cyclopentyl-1-d)-4-((5-phenyl-1,3,4-thiadiazol-2-yl)methyl)-1,4-dihydropyrazine-2,3-dione]
39 | 8 nM | O=C1C(=O)N(C2CC(F)C2)CCN1Cc1nnc(-c2ccccc2)s1 (stereo not shown) [Example 290, 1-(3-fluorocyclobutyl)-4-((5-phenyl-1,3,4-thiadiazol-2-yl)methyl)piperazine-2,3-dione]
40 | 7 nM | O=C1C(=O)N([C@H]2C[C@H]3C[C@H]3C2)CCN1Cc1nnc(-c2ccccc2)s1 [Example 283, 1-((cis)-bicyclo[3.1.0]hexan-3-yl)-4-((5-phenyl-1,3,4-thiadiazol-2-yl)methyl)piperazine-2,3-dione]

Reference: patent publication US20240246937A1 (MERCK SHARP & DOHME LLC, priority 2021, published 2024)
